Assay results from PubChem BioAssay (NCI).
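A five-concentration, 48-hour dose response in 96-well plates underlies each endpoint, interpolated linearly between surrounding concentrations. At the TGI there is no net growth.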

Assays:
Assay in all cases: DTP human tumour cell line panel, 48 h
[1] = system: SNB-19 CNS
[2] = system: LOX IMVI melanoma
[3] = system: CAKI-1 renal
[4] = system: MOLT-4 leukemia
[5] = system: CCRF-CEM leukemia
[6] = system: HL-60(TB) leukemia
[7] = system: OVCAR-8 ovarian
[8] = system: NCI-H460 lung
[9] = system: HCT-116 colon
[10] = system: MCF7 breast
[11] = system: SF-295 CNS

Row | Compound | TGI [1] | TGI [2] | TGI [3] | TGI [4] | TGI [5] | TGI [6] | TGI [7] | TGI [8] | TGI [9] | TGI [10] | TGI [11]
1 | CC(=O)O[C@H]1CC[C@@]2(C)C(=CC[C@H]3[C@@H]4C/C(=C\c5ccncc5)[C@H](OC(C)=O)[C@@]4(C)CC[C@@H]32)C1 | 22.2 µM | 13.3 µM | 25.7 µM | 13.9 µM | 11.2 µM | 16.7 µM | 34.5 µM | 24.4 µM | 24.1 µM | 30.3 µM | 19.5 µM
2 | COc1cc2c(cc1O)-c1c(OC)c(O)cc3c1C(C2)N(C)CC3 (centres undefined) | > 100 µM | > 100 µM | > 100 µM | > 100 µM | > 100 µM | > 100 µM | > 100 µM | > 100 µM | > 100 µM | > 100 µM | > 100 µM
3 | O=C1CSC(c2ccccc2[N+](=O)[O-])N1c1ccc(-n2c(-c3ccccc3)nc3ccccc3c2=O)cc1 (centres undefined) | > 100 µM | > 100 µM | > 100 µM | > 100 µM | > 100 µM | > 100 µM | > 100 µM | > 100 µM | > 100 µM | > 100 µM | 64.3 µM
4 | Cc1ccc(C(=O)c2[nH]c(Nc3ccc(Cl)cc3)c(C(=S)Nc3ccccc3)c2N)cc1 | 21.9 µM | 14.3 µM | 30.6 µM | 32.6 µM | > 100 µM | > 100 µM | 18.1 µM | 15.4 µM | 11 µM | 33.6 µM | 5.27 µM
5 | Cc1cn(CCCCOC(=O)NC(CCCNC(N)=O)C(=O)O)c(=O)[nH]c1=O (centres undefined) | > 100 µM | > 100 µM | > 100 µM | > 100 µM | > 100 µM | > 100 µM | > 100 µM | > 100 µM | > 100 µM | > 100 µM | > 100 µM
6 | N#Cc1nc(NC(=O)c2ccccc2)sc1N | > 10 µM | > 10 µM | > 10 µM | > 10 µM | > 10 µM | > 10 µM | > 10 µM | > 10 µM | > 10 µM | > 10 µM | > 10 µM
7 | CCOC(=O)c1nc2cc(C(F)(F)F)ccc2nc1Oc1ccc(C(=O)OC)cc1 | > 100 µM | > 100 µM | > 100 µM | > 100 µM | > 100 µM | > 100 µM | > 100 µM | > 100 µM | > 100 µM | > 100 µM | > 100 µM
8 | Nc1nc(NCC2(CO)CC(CCc3ccccc3)C2)cc(=O)[nH]1 (centres undefined) | > 100 µM | > 100 µM | > 100 µM | > 100 µM | > 100 µM | > 100 µM | > 100 µM | > 100 µM | > 100 µM | > 100 µM | > 100 µM
9 | CC(=O)[C@]1(C)[C@H](C)O[C@](C)(CO)[C@H]1O[Si](C)(C)c1ccccc1 | > 100 µM | 44.4 µM | 54.2 µM | > 100 µM | > 100 µM | 72.4 µM | > 100 µM | > 100 µM | > 100 µM | > 100 µM | > 100 µM
10 | CC1=C2c3ccccc3N(S(=O)(=O)c3ccccc3)[C@H]2[C@H](C(=O)N2C3CC4CC[C@@]3(CS2(=O)=O)C4(C)C)CC1 (some centres undefined) | > 100 µM | > 100 µM | > 100 µM | 75.9 µM | > 100 µM | 21.9 µM | > 100 µM | > 100 µM | > 100 µM | 75.4 µM | > 100 µM
11 | O=C1C(Cl)C(c2cccc(Br)c2)N1c1c(O)c(Cl)cc(Br)c1Cl (centres undefined) | 11.5 µM | 28.5 µM | 81.1 µM | 35.7 µM | 41.3 µM | 53.5 µM | > 100 µM | 27.1 µM | 27.6 µM | 25.8 µM | 31.1 µM
12 | Cc1cccc(Nc2nc(NNC(=O)Cc3ccccc3)nc(NNC(=O)c3ccncc3)n2)c1 | > 10 µM | > 10 µM | > 10 µM | > 10 µM | > 10 µM | > 10 µM | > 10 µM | > 10 µM | > 10 µM | > 10 µM | > 10 µM
13 | O=C(/C=C/c1ccc(O)cc1)c1cc(O)cc(O)c1 | 30.3 µM | 17.3 µM | 43.8 µM | 45.3 µM | 35.1 µM | > 100 µM | 27.6 µM |  | 26.3 µM | 12.3 µM | 30.6 µM
14 | C=CCOCn1ccc(NC(=O)c2ccccc2)nc1=O | > 100 µM | > 100 µM | > 100 µM | > 100 µM | > 100 µM | > 100 µM | > 100 µM | > 100 µM | > 100 µM | > 100 µM | > 100 µM
15 | CN(C)c1ccc(/C=C2\N=C(c3ccccc3)N(/N=C3\C(=O)Nc4ccccc43)C2=O)cc1 | > 100 µM | > 100 µM | > 100 µM | > 100 µM | > 100 µM | > 100 µM | > 100 µM | > 100 µM | > 100 µM | > 100 µM | > 100 µM
16 | CCCCCCCCCCCCCCCCNc1ccc2c(c1)OCCOCCOCCOCCO2 | 14.2 µM | 5.42 µM | 13.6 µM | 6.19 µM | 7.62 µM | 6.16 µM | 10.8 µM | 10.7 µM | 11.3 µM | 13.2 µM | 7.94 µM
17 | Cc1n(-c2ccccc2)c2c([n+]1Cc1ccc([N+](=O)[O-])cc1)C(=O)c1ccccc1C2=O | 3.22 µM | 3.73 µM | 39.7 µM | 2.57 µM | 5.46 µM | 1.35 µM | 6.43 µM | 12.4 µM | 4.36 µM | 2.75 µM | 15.3 µM
18 | Cc1ccc(N=Nc2c(C)nn(C(=O)CC(=O)Nc3ccc(Cl)cc3)c2C)cc1C | > 100 µM | > 100 µM | > 100 µM | 66 µM | 71 µM | 56 µM | > 100 µM | > 100 µM | > 100 µM | > 100 µM | > 100 µM
19 | Cc1nc2ccc(S(=O)(=O)Nc3ccccc3Cl)cc2c(=O)n1NC(=O)CNc1ccccc1Cl | > 100 µM | > 100 µM | > 100 µM | > 100 µM | > 100 µM | > 100 µM | > 100 µM | > 100 µM | > 100 µM | > 100 µM | > 100 µM
20 | CCOC(=O)NC(C(C(=O)OCC)C(=O)OCC)(C(F)(F)F)C(F)(F)F | > 100 µM | > 100 µM | > 100 µM | > 100 µM | > 100 µM | > 100 µM | > 100 µM | > 100 µM | > 100 µM | > 100 µM | > 100 µM
21 | NN/C(=N\S(=O)(=O)c1cccc2nsnc12)Nc1ccc(Cl)cc1 | > 100 µM | > 100 µM | > 100 µM | > 100 µM | > 100 µM | > 100 µM | > 100 µM | > 100 µM | > 100 µM | > 100 µM | > 100 µM
22 | O=C(O)c1nc2cc(C(F)(F)F)ccc2[nH]c1=O | > 100 µM | > 100 µM | > 100 µM | > 100 µM | > 100 µM | > 100 µM | > 100 µM | > 100 µM | > 100 µM | > 100 µM | > 100 µM
23 | Cc1ccc(C2SC(N)=Nc3c2c(C)nn3C(=O)c2ccc(Cl)cc2)cc1 (centres undefined) | > 10 µM | > 10 µM | > 10 µM | > 10 µM | > 10 µM | > 10 µM | > 10 µM | > 10 µM | > 10 µM | > 10 µM | > 10 µM
24 | CCN(CC)CCOCC1CCCN2CCCCC12 (centres undefined) | > 100 µM | > 100 µM | > 100 µM | > 100 µM | > 100 µM | > 100 µM | > 100 µM | > 100 µM | > 100 µM | > 100 µM | > 100 µM
25 | O=c1[nH]cnc2c1ncn2C1SC(CO)C(O)C1O (centres undefined) | > 100 µM | > 100 µM | > 100 µM | > 100 µM | > 100 µM | > 100 µM | > 100 µM | > 100 µM | > 100 µM | > 100 µM | > 100 µM
26 | CC1=C(c2ccc(C)cc2)NC(=S)C(C)C(c2ccc(C)cc2)=N1 (centres undefined) | > 100 µM | > 100 µM | > 100 µM | > 100 µM | > 100 µM | > 100 µM | > 100 µM | > 100 µM | > 100 µM | > 100 µM | > 100 µM
27 | COC(=O)c1c2c(cc3c1CC1(C3)Cc3ccc4c(c3C1=O)CCC4)CCC2 (centres undefined) | 62.1 µM | > 58.1 µM | 21.2 µM | > 100 µM | > 81.8 µM | > 28.3 µM | > 82 µM | > 100 µM | > 62.2 µM | > 66.7 µM | > 28.8 µM
28 | COc1cc(S(=O)(=O)Nc2ccc(-c3csc(/N=C\C=C\c4ccccc4)n3)cc2)ccc1Cl | > 100 µM | > 100 µM | > 100 µM | > 100 µM | 50.4 µM | > 100 µM | > 100 µM | > 100 µM | > 100 µM | > 100 µM | > 100 µM
29 | CCN(CC)c1nc(=O)c(C(=O)C(C)(C)C)c(C(C)(C)C)o1 | > 100 µM | > 100 µM | > 100 µM | > 100 µM | > 100 µM | > 100 µM | > 100 µM | > 100 µM | > 100 µM | > 100 µM | > 100 µM
30 | O=c1c2ccccc2n2n1Cc1ccccc1C2 | > 100 µM | > 100 µM | > 100 µM | > 100 µM | > 100 µM | > 100 µM | > 100 µM | > 100 µM | > 100 µM | > 100 µM | > 100 µM
